Among the data in PubChem BioAssay (NCI) are TGI values, retold here.

Some test systems named below: SNB-78 CNS; NCI-H522 lung; NCI-H226 lung; OVCAR-8 ovarian; XF 498 CNS; DMS 273 small cell lung; DMS 114 small cell lung; UACC-62 melanoma; UACC-257 melanoma; LXFL 529 NSCLC; HOP-18 NSCLC; BT-549 breast; MCF7 breast.
Test in all cases: inhibition of tumour cell growth, NCI panel, 48 h

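All cell lines were grown in 96-well plates and treated with compound for 48 hours. TGI: concentration producing complete growth inhibition.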

Turning to `O=C1CCCCCCCCCCC1CN1CCCCC1` (stereo not drawn), the TGI with SNB-78 CNS was over 100 µM; in the test on NCI-H522 lung, over 100 µM; in the test on NCI-H226 lung it was 82.4 µM; with OVCAR-8 ovarian, over 100 µM; in the test with XF 498 CNS it was over 100 µM; in the test with DMS 273 small cell lung, over 100 µM. In addition, the TGI in the test on DMS 114 small cell lung, with UACC-62 melanoma, in the test on UACC-257 melanoma and in the test with LXFL 529 NSCLC was over 100 µM each time.

Take `Cc1cc(=O)oc2c(C)c(OCCCOc3ccc4c(C)cc(=O)oc4c3C)ccc12`: the TGI in the test on SNB-78 CNS, with NCI-H522 lung, in the test on HOP-18 NSCLC, with OVCAR-8 ovarian, in the test with XF 498 CNS and in the test on DMS 273 small cell lung was over 100 µM each time. For the same compound, the TGI in the test on DMS 114 small cell lung, with UACC-62 melanoma, in the test on UACC-257 melanoma and with LXFL 529 NSCLC was over 100 µM throughout.

As for `Cc1c(C(=O)/C=C/c2ccccc2O)c(=O)n(-c2ccccc2)n1C`, the TGI was over 100 µM in the test on SNB-78 CNS; 47.5 µM in the test on NCI-H522 lung; 64.6 µM in the test on NCI-H226 lung; 40.7 µM in the test with OVCAR-8 ovarian; 46.3 µM in the test with XF 498 CNS; over 100 µM in the test on DMS 273 small cell lung. Also, the TGI in the test with DMS 114 small cell lung is over 100 µM; in the test with UACC-62 melanoma it was over 100 µM; in the test with UACC-257 melanoma, 89.7 µM; in the test on LXFL 529 NSCLC, 37.5 µM.

Take `CCCCCCCCCCCCOCCCOP(=O)([O-])OCC[N+](C)(C)C`: the TGI with SNB-78 CNS is over 89.5 µM; with NCI-H522 lung, 68.3 µM; in the test on HOP-18 NSCLC, over 100 µM; with NCI-H226 lung it was 65.8 µM; in the test on BT-549 breast, 33.1 µM; in the test with OVCAR-8 ovarian it was over 80.3 µM. Further, the TGI is over 89.4 µM in the test with XF 498 CNS; 35.5 µM in the test on DMS 273 small cell lung; over 83.9 µM in the test with UACC-62 melanoma; over 100 µM in the test with MCF7 breast; 98.9 µM in the test with UACC-257 melanoma.

As for `CC(C)(C)C(=O)OC12/C(=N/O)CCCCCC1c1ccccc12` (stereo not drawn), the TGI in the test on SNB-78 CNS was 46.6 µM; in the test with NCI-H522 lung, 35 µM; in the test on HOP-18 NSCLC it was 34 µM; in the test on NCI-H226 lung it was 35.4 µM; in the test with OVCAR-8 ovarian, 33.4 µM; in the test with DMS 273 small cell lung it was 34.3 µM. Moreover, the TGI with DMS 114 small cell lung amounted to 35.4 µM; with UACC-62 melanoma it was 31.5 µM; in the test on UACC-257 melanoma, 28.5 µM; with LXFL 529 NSCLC it was 30.3 µM.

For `COC(=O)c1cnc(Cl)cn1`, the TGI is 5.33 µM with NCI-H522 lung; over 100 µM in the test with NCI-H226 lung; over 100 µM in the test with BT-549 breast; over 100 µM in the test on OVCAR-8 ovarian; over 100 µM in the test on UACC-62 melanoma; 95.5 µM in the test with MCF7 breast. For the same compound, in the test with UACC-257 melanoma, the TGI was over 100 µM.
